Where two headings read alike, the source gives them in different places.
How the values were obtained:
[1] = system: sAD and familial AD (PSEN1 mutants) patient fibroblasts; test: Total cellular ATP levels in Alzheimer's disease patient fibroblasts; type: cell-based, human; conditions: 24 hour treatment at 100 nM, 21% restores to control levels
Method: Data shown in the Table 6 below is the mean increase in ATP levels after 24 hour treatment with compounds at 100 nM concentration.

[2] = system: sporadic PD patient fibroblasts; test: Mitochondrial membrane potential (MMP, TMRM) in sporadic PD patient fibroblasts; type: cell-based; conditions: Homo sapiens, Fibroblast, 6 sporadic PD patient fibroblasts, 24 h; for EC50: read-out: MMP EC50; for activity at 0.3 µM: max response with highest dose (300 nM), read-out: MMP Top (% of vehicle treated); for activity at 60 pM: max response with lowest dose (0.06 nM), read-out: MMP Bottom (% of vehicle treated)
Method: (§1) Fibroblasts were cultured in DMEM (Invitrogen) and routinely subcultured every 3-5 days using trypsin to dissociate them.
Fibroblasts were cultured and plated into a Griener black 384 pClear® plate at 10000 cells per well in 50 μl of media volume. The plates are left overnight in an incubator to allow the fibroblasts to adhere to the plate surface. The following morning the Glucose based medium is replaced with 25 μl of Galactose based media. The plates were then dosed with the compounds using an ECHO® 550 liquid handling system. The wells were dosed to provide an 8-point concentration range of 0.06 nM-300 nM of compound. After dosing the wells are topped up with a further 25 μl of Galactose based medium and then left in an incubator for 24 hours. After 24 hours, the medium is removed from the wells and replaced with 25 ul phenol free Minimal essential medium with 100 nM TMRM (Sigma) and 10 μM Hoechst Stain (Sigma). The plate is returned to the incubator for another hour after which the stain medium is removed and replaced with 25 ul Phenol free MEM. The plate is then imaged using an IN Cell high content microscope (GE Healthcare) with 10 fields of view per well in 2 channels, Cy3 excitation 542 nm, emission 604-64 nm; and the DAPI excitation 350 nm, emission 450-55 nm at 37° C. with CO2. After imaging the plate is disposed of and the images are Data mined using the INCell developer Toolkit (GE Healthcare).
(§2) After the assays had been repeated in triplicate per line and compound the data was then inputted into Graph pad Prism 7 software suite where a dose response curve is generated using the default “[Agonist] vs response (three parameters)” equation.
(§3) From this EC50 values, lowest response and maximal response were taken and used to calculate the Geometric mean between the 5 different lines assessed.
The mitochondrial membrane potential was measured in fibroblasts from 6 (Table 1) or 3 (Table 2) patients with sporadic Parkinson's disease when treated with Compounds of the invention or Comparator compounds. The results are shown in Tables 1 and 2, where “Bottom”=max response with lowest dose of compound (0.06 nM) and “top”=max response with highest dose of compound (300 nM).

[3] = system: sporadic PD patient fibroblasts; test: Cellular ATP levels (ATPlite, normalised to CyQUANT DNA content) in sporadic PD patient fibroblasts; type: cell-based; conditions: Homo sapiens, Fibroblast, 6 sporadic PD patient fibroblasts, 24 h; for EC50: read-out: Cellular ATP levels EC50; for activity at 0.3 µM: max response with highest dose (300 nM), read-out: Cellular ATP levels Top (% of vehicle treated); for activity at 60 pM: max response with lowest dose (0.06 nM), read-out: Cellular ATP levels Bottom (% of vehicle treated)
Method: as §1
The ATP protocol is generally as described in Mortiboys et al, “Mitochondrial function and morphology are impaired in parkin-mutant fibroblasts”, Ann Neurol. 2008 November; 64(5):555-65. Briefly, fibroblasts were cultured as and plated into white 384 well plates with 5000 cells per well in 50 μl of media volume. The plates are left overnight in an incubator to allow the fibroblasts to adhere to the plate surface. The following morning the Glucose based medium is replaced with 25 μl of Galactose based medium. The compounds are added to the plates using a ECHO 550 liquid handling system. The wells were dosed to provide an 8-point concentration range of 0.06 nM-300 nM of compound. After dosing the wells are topped up with a further 25 μl of Galactose based medium and then left in an incubator for 24 hours. Following this incubation the medium is removed from the plate and the wells are washed twice with sterile PBS. The wells are filled with 25 μl of Sterile PBS followed by 12.5 μl of Lysis solution from the ATPlite™ Luminescence ATP detection assay system (Perkin Elmer), including 16 cell free wells to use as blank controls. The plate is then placed on a rotary shaker for 5 mins at 700 rpm. Following the shaking 12.5 μl of ATP substrate solution (Perkin Elmer) is added to each well and a further 5 min of shaking. The plate is then placed in darkness for 10 minutes prior to reading. Using a PHERAStar® plate reader, luminescence intensity is recorded. Following the ATP assay the plates are immediately assayed for DNA content in a CyQUANT® assay.
Immediately following The ATP assay DNA content is assessed with the CyQUANT® NF Cell Proliferation Assay Kit (ThermoFisher). CyQUANT® buffer is prepared immediately before the assay and is comprised of 1 ul CyQUANT® dye per ml×1 HBSS solution. 12.5 ul of CyQUANT® buffer is added to each well. Plate left in incubator for 1 hour then read on a PHERAStar® Plate reader with excitation at 497 nm and emission at 520 nm. ATP Quantification for each well is determined using the following formula: […]
as §2, §3
Cellular ATP levels were measured in fibroblasts from 6 (Table 3) or 3 (Table 4) patients with sporadic Parkinson's disease when treated with Compounds of the invention or Comparator compounds. The results are shown in Tables 3 and 4, where “Bottom”=max response with lowest dose of compound (0.06 nM) and “top”=max response with highest dose of compound (300 nM).

[4] = system: mitochondrial respiratory chain complex I; test: Complex I assay, left striatum brain homogenate of mice dosed with or without MPTP; type: in vivo, mouse; conditions: left striatum mouse brain homogenate; MPTP alone; FIG. 4
Method: Ex vivo mice brain was homogenated in a buffer of 250 mM sucrose, 20 mM HEPES, 3 mM EDTA, pH 7.5 at 4° C. Homogenisation was carried out using a Dounce homogenizer, for cortex samples, and by repetitive passage through a 0.5 mm syringe for isolated striatum. Samples were then incubated with 30 μl of detergent from the AbCam colorimetric Complex I assay kit on ice for 20 minutes. Samples are then centrifuged at 13,000 rpm for 30 mins. Triplicate samples per condition were blocked using the kit blocking buffer on the AbCam colorimetric Complex I assay kit plate for 3 hours. Samples are then washed using the kit wash buffer 3 times before the addition of the kit assay buffer containing NADH and colorimetric dye. The assay plate is read on a plate reader in a kinetic assay programme reading 450 nm in a 30 second interval for 50 minutes.

[5] = system: dopaminergic neurons derived from sPD patients (iNeurons); test: Mitochondrial function and neuronal morphology measurements in iNeurons from sPD patients; type: cell-based, human; conditions: iNeurons from sPD patients; for EC50: Homo sapiens, Neuron
Method: as §1
(§4) Briefly, iNPCs are plated in a 6-well plate and cultured for 2 days in DMEM/F-12 medium with Glutamax™ supplemented with 1% NEAA, 2% B27 (Gibco) and 2.5 μM of DAPT. On day 3, DAPT is removed and the medium is supplemented with 1 μM smoothened agonist (SAG) and FGF8 (75 ng/ml) for additional 10 days. Neurons are replated at this stage. Subsequently SAG and FGF8 are withdrawn and replaced with BDNF (30 ng/ml), GDNF (30 ng/ml), TGF-b3 […] and dcAMP (2 mM, Sigma) for 15 days.
Cells are plated in 96 well plates; for live imaging cells are incubated for one hour at 37 degree with 80 nM tetramethlyrhodamine (TMRM), 1 μM LysoTracker® Green (Invitrogen) and Hoechst Stain solution (Sigma) at 1 μM before imaging using Opera Phenix™. Cellular ATP measurements are undertaken using ATPlite kit (Perkin Elmer) as per manufacturer's instructions. Mitochondrial reactive oxygen species generation was assessed using mitochondrial NpFR2 (probe; a kind gift from Dr Liz New, University of Sydney, Australia) at 20 μM and Hoechst stain solution at 1 μM for 30 mins at 37° C., then the dyes are removed and cells images using Opera Phenix™. Images generated from the live imaging experiments were analysed using Harmony® (Perkin Elmer software). We developed protocols in order to segment nucleus, cell boundary and processes, mitochondria, lysosomes, autophagosomes. We only analysed the z projection images collected from the z stacks.

[6] = system: dopaminergic neurons derived from sPD patients (iNeurons); test: Activated caspase 3 immunofluorescence staining in iNeurons; type: cell-based, human; conditions: untreated sPD 162
Method: as §4
Cells are plated into 96 well plates and fixed using 4% paraformaldehyde for 30 minutes. After PBS washes cells are permeabilised using 0.1% Triton™ X-100 for 10 minutes and blocked using 5% goat serum for 1 hour. Cells are incubated with primary antibodies tyrosine hydroxylase (St John's Laboratory); DAT (Abcam); Tuj (Millipore); Tom20 (BD Biosciences); activated caspase 3 (Cell Signaling); alpha synuclein (Cell Signaling); phosphorylated alpha synuclein (Millipore) at 4° C. for 16 hours. Cells are washed using PBS-Tween® and incubated with Alexa Fluor™-conjugated secondary antibodies 488 and 568 (Invitrogen) and Hoescht (Sigma) 1 μM prior to imaging. Imaging was performed using the Opera Phenix™ high content imaging system (Perkin Elmer).

[7] = system: sporadic PD patient fibroblast lines; test: Seahorse assay (oxygen consumption, extracellular acidification rate) in sPD fibroblasts; type: cell-based, human; conditions: Homo sapiens, Fibroblast; concentration at which compounds were dosed in the seahorse assay; read-out: EC90 concentration
Method: Fibroblasts are plated into Seahorse 24 well plates with 50,000 cells per well. Cells are left to attach for 2 days. Media is changed to Seahorse DMEM media with glucose and sodium pyruvate and left to equilibrate at 37 degrees normal air CO2 for 1 hour. The plate is entered into the Seahorse machine and run on a program of mix (2 minutes), wait (3 minutes) and measure (3 minutes). After three measurements of basal respiration and ECAR; 0.5 μM oligomycin is injected after which another three measurements are taken; then 0.5 μM of FCCP is injected and three measurements taken and finally 1 μM rotenone is injected and three measurements taken. After all measurements are complete, cells are stained with 10 μM Hoescht and imaged using the InCell to count the number of cells per well for normalisation. This classical ritochondrial stress test experimental protocol allows us to calculate the basal mitochondrial respiration, ATP linked respiration (the amount which is coupled to ATP generation), the maximal and spare respiratory capacity, the non-mitochondrial respiration rate and the extracellular acidification rate which is a proxy measure of glycosolysis.

[8] = system: dopaminergic neurons derived from sPD patients (iNeurons); test: Dopamine ELISA in iNeurons; type: cell-based, human; conditions: untreated sPD 0
Method: as §4
Dopamine ELISA is performed using Dopamine research ELISA kit (Labor Diagnostika Nord GmbH&Co. KG) as per manufacturers instructions. Dopamine release is obtained incubating the cells at 37° C. using three different conditions at the same time per line. Medium is removed in all wells then the first well is incubated with HBSS with Ca^2+ and Mg^2+ (Gibco by Life Technologies) for 30 minutes, the second well is incubated in HBSS with Ca^2+ and Mg^2+ for 15 minutes and then 56 mM KCl (Fisher chemical) is added for another 15 minutes and the third well is incubated with HBSS without Ca^2+ and Mg^2+ (Gibco by Life Technologies) but with 2 mM EDTA for 15 min and then 56 mM KCl is added for another 15 minutes. Straight away media is collected in an eppendorf and cells are harvested using Accutase®, centrifuge at 400 g for 4 min and resuspended in 10 μl of PBS. […]

Structure (SMILES)	% increase over vehicle treated (mean increase in ATP levels) [1] [%]	EC50 [2] [nM]	activity at 0.3 µM [2] [%]	activity at 60 pM [2] [%]	EC50 [3] [nM]	activity at 0.3 µM [3] [%]	activity at 60 pM [3] [%]	other results
C[C@H](CCC(=O)O)[C@H]1CC[C@H]2[C@@H]3[C@H](O)C[C@@H]4C[C@@H](O)[C@@H](F)C[C@]4(C)[C@H]3CC[C@]12C [Compound 2, 2β-fluoro-3β,7α-dihydroxy-5β-cholanic acid]	65	20.8	112	107	1.08	113	79.9	–
C[C@H](CCC(=O)O)[C@H]1CC[C@H]2[C@@H]3[C@H](O)C[C@@H]4C[C@H](O)C(F)(F)C[C@]4(C)[C@H]3CC[C@]12C [Compound 8, 2,2-difluoro-3α,7α-dihydroxy-5β-cholanic acid]	65	–	–	–	–	–	–	–
C[C@H](CCC(=O)O)[C@H]1CC[C@H]2[C@@H]3[C@H](O)C[C@@H]4C[C@H](O)C(F)=C[C@]4(C)[C@H]3CC[C@]12C [Compound H, 2-fluoro-3α,7α-dihydroxy-5β-chol-1-enic acid, reference compound]	–	4.58	109	99.8	0.125	121	87.6	–
CN1CC=C(c2ccccc2)CC1 [MPTP, 1-methyl-4-phenyl-1,2,3,6-tetrahydropyridine, reference compound]	–	–	–	–	–	–	–	Reduction in complex I activity compared with untreated controls [4]: 50%
C[C@H](CCC(=O)O)[C@H]1CC[C@H]2[C@@H]3[C@@H](O)C[C@@H]4C[C@H](O)CC[C@]4(C)[C@H]3CC[C@]12C [UDCA, ursodeoxycholic acid, reference compound]	12	–	–	–	–	–	–	EC50 ([5]; read-out: ATP EC50): 5 nM; EC50 ([5]; read-out: MMP EC50): 7.3 nM; Neuronal morphology (elongation; % controls) ([5]; untreated sPD 48): 64 % controls; ATP normalisation (% of controls) ([5]; untreated sPD 50): 82 % of controls; MMP normalisation (% of controls) ([5]; untreated sPD 52): 73 % of controls; ROS (Normalisation) (% controls) ([5]; untreated sPD 115): 110 % controls; Activated caspase 3 levels [6]: 143 % of level in iNeurons from Controls; EC90 [7]: 100 nM; Dopamine level (increase in dopamine release) [8]: No effect
